According to the NIST ThermoML archive (doi:10.1016/j.jct.2017.10.002):
Values joined by “and” are separate entries in the source; they are usually repeats but may differ in a detail not shown here. Equal values may be shown once.

Test: molar heat capacity at constant pressure
Conditions: 101.33 kPa, relaxation calorimetry

CCc1ncc[n-]1.CCc1ncc[n-]1.[Zn+2] [zinc(II) 2-ethylimidazolide]
molar heat capacity at constant pressure
Conditions | Crystal | Glass
1 K | – | 0.01063 J/K/mol
1.832 K | 0.0493 J/K/mol | –
1.836 K | 0.01638 J/K/mol | –
1.837 K | 0.04503 J/K/mol | –
1.839 K | – | 0.03581 J/K/mol
1.88 K | 0.05213 J/K/mol | –
1.914 K | 0.04977 J/K/mol | –
1.915 K | – | 0.04142 J/K/mol
1.916 K | 0.0188 J/K/mol | –
1.932 K | 0.05559 J/K/mol | –
1.989 K | 0.0603 J/K/mol | –
2 K | 0.0589 J/K/mol [middle of 4 runs] | 0.04827 J/K/mol
2.001 K | – | 0.04687 J/K/mol
2.005 K | 0.02171 J/K/mol | –
2.051 K | 0.06589 J/K/mol | –
2.09 K | 0.06722 J/K/mol | –
2.091 K | – | 0.05348 J/K/mol
2.099 K | 0.02469 J/K/mol | –
2.118 K | 0.07352 J/K/mol | –
2.183 K | 0.07697 J/K/mol | –
2.184 K | – | 0.06212 J/K/mol
2.19 K | 0.08177 J/K/mol | –
2.197 K | 0.02817 J/K/mol | –
2.265 K | 0.0916 J/K/mol | –
2.283 K | 0.08765 J/K/mol | –
2.285 K | – | 0.07138 J/K/mol
2.301 K | 0.03272 J/K/mol | –
2.346 K | 0.1035 J/K/mol | –
2.41 K | 0.03888 J/K/mol | –
2.411 K | 0.1031 J/K/mol | –
2.417 K | – | 0.08449 J/K/mol
2.488 K | 0.1258 J/K/mol | –
2.509 K | – | 0.09566 J/K/mol
2.512 K | 0.1183 J/K/mol | –
2.516 K | 0.04352 J/K/mol | –
2.61 K | 0.1475 J/K/mol | –
2.615 K | 0.135 J/K/mol | –
2.639 K | 0.0517 J/K/mol | –
2.646 K | – | 0.1124 J/K/mol
2.733 K | 0.1558 J/K/mol | –
2.738 K | – | 0.1254 J/K/mol
2.739 K | 0.1709 J/K/mol | –
2.744 K | 0.0566 J/K/mol | –
2.854 K | 0.06599 J/K/mol | –
2.858 K | 0.194 J/K/mol | –
2.86 K | 0.1727 J/K/mol | –
2.868 K | – | 0.1481 J/K/mol
2.979 K | 0.1934 J/K/mol | –
2.986 K | 0.2216 J/K/mol | 0.1712 J/K/mol
2.992 K | 0.07481 J/K/mol | –
3 K | 0.2257 J/K/mol and 0.076 J/K/mol and 0.2038 J/K/mol | 0.168 J/K/mol
3.106 K | 0.08446 J/K/mol | –
3.109 K | 0.2254 J/K/mol | –
3.118 K | 0.2529 J/K/mol | –
3.122 K | – | 0.1906 J/K/mol
3.246 K | 0.09833 J/K/mol | –
3.248 K | 0.2525 J/K/mol | –
3.259 K | 0.2898 J/K/mol | –
3.264 K | – | 0.2232 J/K/mol
3.388 K | 0.2988 J/K/mol | –
3.395 K | 0.1127 J/K/mol | –
3.397 K | – | 0.2534 J/K/mol
3.407 K | 0.3327 J/K/mol | –
3.536 K | 0.3331 J/K/mol | –
3.537 K | 0.1275 J/K/mol | –
3.551 K | – | 0.2838 J/K/mol
3.562 K | 0.381 J/K/mol | –
3.691 K | 0.3887 J/K/mol | –
3.692 K | 0.1432 J/K/mol | –
3.699 K | – | 0.3307 J/K/mol
3.737 K | 0.4416 J/K/mol | –
3.853 K | 0.4343 J/K/mol and 0.1693 J/K/mol | –
3.861 K | – | 0.3658 J/K/mol
3.916 K | 0.5079 J/K/mol | –
4 K | 0.5386 J/K/mol and 0.1872 J/K/mol and 0.4762 J/K/mol | 0.4158 J/K/mol
4.023 K | 0.1911 J/K/mol | –
4.024 K | 0.4906 J/K/mol | –
4.033 K | – | 0.4343 J/K/mol
4.093 K | 0.5776 J/K/mol | –
4.203 K | 0.2234 J/K/mol | –
4.204 K | 0.5288 J/K/mol | –
4.213 K | – | 0.4859 J/K/mol
4.288 K | 0.6588 J/K/mol | –
4.385 K | 0.6193 J/K/mol | –
4.39 K | 0.2481 J/K/mol | –
4.397 K | – | 0.5485 J/K/mol
4.475 K | 0.7416 J/K/mol | –
4.577 K | 0.2815 J/K/mol | –
4.58 K | 0.6992 J/K/mol | –
4.588 K | – | 0.6228 J/K/mol
4.673 K | 0.833 J/K/mol | –
4.782 K | 0.3148 J/K/mol | –
4.784 K | 0.7873 J/K/mol | –
4.797 K | – | 0.7076 J/K/mol
4.885 K | 0.9362 J/K/mol | –
4.995 K | 0.8682 J/K/mol and 0.3599 J/K/mol | –
5 K | 0.9962 J/K/mol and 0.3674 J/K/mol and 0.8773 J/K/mol | 0.8029 J/K/mol
5.008 K | – | 0.8138 J/K/mol
5.104 K | 1.051 J/K/mol | –
5.217 K | 0.968 J/K/mol and 0.4058 J/K/mol | –
5.228 K | – | 0.8928 J/K/mol
5.341 K | 1.18 J/K/mol | –
5.447 K | 1.121 J/K/mol | –
5.449 K | 0.4865 J/K/mol | –
5.457 K | – | 1.022 J/K/mol
5.583 K | 1.326 J/K/mol | –
5.686 K | 0.5523 J/K/mol | –
5.687 K | 1.228 J/K/mol | –
5.699 K | – | 1.17 J/K/mol
5.837 K | 1.479 J/K/mol | –
5.933 K | 1.341 J/K/mol | –
5.936 K | 0.614 J/K/mol | –
5.952 K | – | 1.278 J/K/mol
6 K | 1.585 J/K/mol and 0.6261 J/K/mol and 1.401 J/K/mol | 1.321 J/K/mol
6.1 K | 1.651 J/K/mol | –
6.189 K | 1.538 J/K/mol | –
6.195 K | 0.6531 J/K/mol | –
6.204 K | – | 1.457 J/K/mol
6.407 K | 1.86 J/K/mol | –
6.464 K | 0.7855 J/K/mol | –
6.465 K | 1.656 J/K/mol | –
6.479 K | – | 1.613 J/K/mol
6.685 K | 2.057 J/K/mol | –
6.752 K | 1.863 J/K/mol and 0.8975 J/K/mol | –
6.765 K | – | 1.809 J/K/mol
6.98 K | 2.277 J/K/mol | –
7 K | 2.294 J/K/mol and 0.9817 J/K/mol and 2.037 J/K/mol | 1.956 J/K/mol
7.049 K | 2.08 J/K/mol and 1.007 J/K/mol | –
7.062 K | – | 1.981 J/K/mol
7.296 K | 2.524 J/K/mol | –
7.357 K | 2.322 J/K/mol and 1.115 J/K/mol | –
7.372 K | – | 2.248 J/K/mol
7.627 K | 2.797 J/K/mol | –
7.681 K | 1.273 J/K/mol | –
7.686 K | 2.488 J/K/mol | –
7.698 K | – | 2.428 J/K/mol
7.976 K | 3.092 J/K/mol | –
8 K | 3.113 J/K/mol and 1.446 J/K/mol and 2.772 J/K/mol | 2.689 J/K/mol
8.016 K | 1.458 J/K/mol | –
8.018 K | 2.783 J/K/mol | –
8.034 K | – | 2.703 J/K/mol
8.339 K | 3.414 J/K/mol | –
8.366 K | 1.661 J/K/mol | –
8.367 K | 3.093 J/K/mol | –
8.389 K | – | 3.029 J/K/mol
8.718 K | 3.76 J/K/mol | –
8.733 K | 3.359 J/K/mol | –
8.737 K | 1.859 J/K/mol | –
8.753 K | – | 3.269 J/K/mol
9 K | 4.029 J/K/mol and 2.004 J/K/mol and 3.588 J/K/mol | 3.511 J/K/mol
9.115 K | 4.141 J/K/mol | –
9.117 K | 2.11 J/K/mol | –
9.118 K | 3.738 J/K/mol | –
9.136 K | – | 3.605 J/K/mol
9.514 K | 3.952 J/K/mol | –
9.518 K | 2.336 J/K/mol | –
9.529 K | 4.549 J/K/mol | –
9.536 K | – | 4.033 J/K/mol
9.931 K | 4.428 J/K/mol | –
9.935 K | 2.594 J/K/mol | –
9.953 K | – | 4.356 J/K/mol
10 K | 5.029 J/K/mol and 2.651 J/K/mol and 4.482 J/K/mol | 4.413 J/K/mol
10.12 K | 5.166 J/K/mol | –
10.35 K | 4.823 J/K/mol and 2.874 J/K/mol | 4.741 J/K/mol
10.59 K | 5.656 J/K/mol | –
10.77 K | 5.231 J/K/mol and 3.187 J/K/mol | –
10.78 K | – | 5.172 J/K/mol
11.06 K | 6.17 J/K/mol | –
11.24 K | 5.701 J/K/mol and 3.55 J/K/mol | –
11.25 K | – | 5.657 J/K/mol
11.54 K | 6.677 J/K/mol | –
11.74 K | 6.214 J/K/mol and 3.967 J/K/mol | –
11.75 K | – | 6.171 J/K/mol
12.06 K | 7.299 J/K/mol | –
12.26 K | 6.744 J/K/mol and 4.399 J/K/mol | –
12.27 K | – | 6.731 J/K/mol
12.59 K | 7.93 J/K/mol | –
12.81 K | 7.34 J/K/mol and 4.896 J/K/mol | 7.322 J/K/mol
13.15 K | 8.616 J/K/mol | –
13.37 K | 7.965 J/K/mol and 5.426 J/K/mol | –
13.38 K | – | 7.966 J/K/mol
13.74 K | 9.343 J/K/mol | –
13.96 K | 8.65 J/K/mol and 6.006 J/K/mol | –
13.97 K | – | 8.66 J/K/mol
14.35 K | 10.14 J/K/mol | –
14.57 K | 9.355 J/K/mol and 6.627 J/K/mol | –
14.59 K | – | 9.395 J/K/mol
14.99 K | 10.97 J/K/mol | –
15 K | 10.96 J/K/mol and 7.064 J/K/mol and 9.871 J/K/mol | 9.887 J/K/mol
15.22 K | 10.14 J/K/mol and 7.319 J/K/mol | –
15.23 K | – | 10.18 J/K/mol
15.49 K | 11.63 J/K/mol | –
15.72 K | 7.865 J/K/mol | –
15.73 K | 10.74 J/K/mol | –
15.74 K | – | 10.79 J/K/mol
16.94 K | 13.59 J/K/mol | –
17.17 K | 12.58 J/K/mol | –
17.18 K | 9.551 J/K/mol | 12.66 J/K/mol
18.52 K | 15.74 J/K/mol | –
18.77 K | 11.5 J/K/mol | –
18.78 K | 14.67 J/K/mol | –
18.79 K | – | 14.78 J/K/mol
20 K | 17.74 J/K/mol and 13.06 J/K/mol and 16.28 J/K/mol | 16.43 J/K/mol
